Test results published in patent US6030975A, “Carboxylic acid derivatives, their preparation and use in treating cancer” (priority 1997, dated 2000).
One block for each compound: values may come before it.

Experiments:
DU-145 prostate tumor = test: DU-145 Model: human prostate (HTB 81) tumor fragments implanted subcutaneously in nude mice; format: in vivo
Experimental: For example, human tumors which have been grown in nude mice can be transplanted into new recipient mice using tumor fragments which are about 50 mg in size. The day of transplantation is designated as day 0. Five to fifteen days later, the mice are treated with the test compounds given as an intravenous or intraperitoneal injection, in groups of five to ten mice at each dose. Compounds are given daily for either 5, 10 or 15 days, at dosed from 0.1-1000 mg/kg of body weight.
Tumor diameters and body weights are measured periodically. Tumor mass is calculated using the diameters measured with Vernier calipers, and the formula:
(length×width2)/2=mg of tumor weight
Mean tumor weights are calculated for each treatment group relative to the untreated control tumors. The DU-145 Model is a specific example of this type of assay and is described below.
Human tumor fragments from prostate (HTB 81), which had been grown in nude mice were implanted subcutaneously via trochar, in the dorsal side of new recipient nude mice, as is well known in the art. The day of implantation is designated as day 0.
Treatment was commenced on day 11 post implantation using Compound I-1 of Table I. There were 6 mice in each treatment group with the mode of administration and amounts administered (mg/kg of body weight) described in Table XI. Compound I-1 was administered once a day for 10 days commencing, as earlier stated, at day 11 post implantation (Q1D×10:11).

human ETA receptor = target: T1, human ETA receptor (Homo sapiens, UniProt P25101); test: ETA receptor binding assay ([125I]-ET1) on membranes of CHO cells expressing cloned human ETA receptor; details: Table III
T1 construct: expressed in transfected cells; host or cells: CHO cells
T1 sequence (P25101 21-427): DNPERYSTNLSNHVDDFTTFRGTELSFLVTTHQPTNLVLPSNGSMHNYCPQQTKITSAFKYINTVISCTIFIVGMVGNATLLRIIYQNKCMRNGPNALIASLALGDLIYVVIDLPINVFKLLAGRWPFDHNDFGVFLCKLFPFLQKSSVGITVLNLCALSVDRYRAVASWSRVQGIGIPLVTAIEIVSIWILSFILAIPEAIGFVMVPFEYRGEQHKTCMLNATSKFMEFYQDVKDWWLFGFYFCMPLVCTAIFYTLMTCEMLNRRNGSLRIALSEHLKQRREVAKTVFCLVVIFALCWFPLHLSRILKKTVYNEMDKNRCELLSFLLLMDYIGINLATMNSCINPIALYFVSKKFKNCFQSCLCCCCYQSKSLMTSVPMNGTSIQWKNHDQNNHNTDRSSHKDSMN
Experimental: (§1) Cloned human ETA receptor-expressing CHO cells and guinea pig cerebellar membranes with >60% ETB compared with ETA receptors were used for binding studies.
The ETA receptor-expressing CHO cells were grown in F12 medium containing 10% fetal calf serum, 1% glutamine, 100 U/ml penicillin and 0.2% streptomycin (Gibco BRL, Gaithersburg, Md., USA). After 48 h, the cells were washed with PBS and incubated with 0.05% trypsin-containing PBS for 5 min. Neutralization was then carried out with F12 medium, and the cells were collected by centrifugation at 300×g. To lyze the cells, the pellet was briefly washed with lysis buffer (5 mM Tris-HCl, pH 7.4 with 10% glycerol) and then incubated at a concentration of 10^7 cells/ml of lysis buffer at 4° C. for 30 min. The membranes were centrifuged at 20,000×g for 10 min., and the pellet was stored in liquid nitrogen.
(§2) The nonspecific binding was determined using 10^-7 M ET1. After 30 min., the free and bound radioligand were separated by filtration through GF/B glass fiber filters (Whatman, England) on a Skatron cell collector (Skatron, Lier, Norway) and the filters were washed with ice-cold Tris-HCl buffer, pH 7.4 with 0.2% BSA. The radioactivity collected on the filters was quantified using a Packard 2200 CA liquid scintillation counter.
The Ki values shown in Table A were determined by non-linear regression analysis using the LIGAND program.

ETB receptor = target: T2, ETB receptor (Cavia porcellus, UniProt H0VTF3); test: ETB receptor binding assay ([125I]-RZ3) on guinea pig cerebellar membranes; details: Table III
T2 construct: Guinea pig cerebella were homogenized; from tissue; host or cells: guinea pig cerebellum membranes
T2 sequence (H0VTF3 27-415): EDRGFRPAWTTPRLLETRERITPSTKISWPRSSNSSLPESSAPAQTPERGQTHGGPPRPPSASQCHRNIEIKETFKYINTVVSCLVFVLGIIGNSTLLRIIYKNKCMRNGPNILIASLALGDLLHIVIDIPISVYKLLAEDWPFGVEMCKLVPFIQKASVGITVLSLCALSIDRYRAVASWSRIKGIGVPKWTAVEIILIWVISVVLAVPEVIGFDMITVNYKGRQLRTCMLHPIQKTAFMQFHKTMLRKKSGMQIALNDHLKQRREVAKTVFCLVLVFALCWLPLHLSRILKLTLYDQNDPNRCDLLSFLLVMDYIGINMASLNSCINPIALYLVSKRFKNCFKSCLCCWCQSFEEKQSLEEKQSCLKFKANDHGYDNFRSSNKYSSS
Experimental: as §1
Guinea pig cerebella were homogenized in a Potter-Elvejhem homogenizer and membranes were obtained by differential centrifugation at 1000×g for 10 min. and repeated centrifugation of the supernatant at 20,000×g for 10 min.
as §2

Compound: COC(=O)C(Oc1nc(OC)cc(OC)n1)C(OC)(c1ccccc1)c1ccccc1 (stereo not drawn) [Compound I-1, Methyl 2-(4,6-dimethoxy-pyrimidin-2-yloxy)-3-methoxy-3,3-diphenylpropionate]
Days for Tumor Weight = 1000 mg (DU-145 prostate tumor; 100 mg/kg IV, Q1Dx10:11): 39.3 days
Mean Tumor Weight (MTW) on Day 33 (DU-145 prostate tumor; 100 mg/kg IV, Q1Dx10:11): 561 mg
Days for Tumor Weight = 1000 mg (DU-145 prostate tumor; 150 mg/kg IP, Q1DX10:11): 59.3 days
Mean Tumor Weight (MTW) on Day 33 (DU-145 prostate tumor; 150 mg/kg IP, Q1DX10:11): 407 mg
Days for Tumor Weight = 1000 mg (DU-145 prostate tumor; 150 mg/kg IV, Q1DX10:11): 37.4 days
Mean Tumor Weight (MTW) on Day 33 (DU-145 prostate tumor; 150 mg/kg IV, Q1DX10:11): 793 mg
Days for Tumor Weight = 1000 mg (DU-145 prostate tumor; 220 mg/kg IP, Q1DX10:11): 50.9 days
Mean Tumor Weight (MTW) on Day 33 (DU-145 prostate tumor; 220 mg/kg IP, Q1DX10:11): 470 mg
MTW % T/C (DU-145 prostate tumor; Day 33, 100 mg/kg IV, Q1Dx10:11): 45.54%
MTW % T/C (DU-145 prostate tumor; Day 33, 150 mg/kg IP, Q1DX10:11): 33.04%
MTW % T/C (DU-145 prostate tumor; Day 33, 150 mg/kg IV, Q1DX10:11): 64.37%
MTW % T/C (DU-145 prostate tumor; Day 33, 220 mg/kg IP, Q1DX10:11): 38.15%
response to administration (reduction in the %T/C Mean Tumor Weight) (DU-145 prostate tumor; all doses, IV and IP): all treatment groups responded

Compound: COc1cc(OC)nc(OC(C(=O)O)C(OC)(c2ccc(F)cc2)c2ccc(F)cc2)n1 (stereo not drawn) [Compound I-60]
Ki (human ETA receptor): 33 nM
Ki (ETB receptor): 970 nM

Second part, the compound after the results:

Ki (human ETA receptor): 6 nM
Compound: COc1cc(OC)nc(OC(C(=O)O)C(OC)(c2ccccc2)c2ccccc2)n1 (stereo not drawn) [Compound I-2, 2-(4,6-Dimethoxy-pyrimidin-2-yloxy)-3-methoxy-3,3-diphenylpropionic acid]

Ki (human ETA receptor): 7 nM
Compound: CCOC(c1ccccc1)(c1ccccc1)C(Oc1nc(OC)cc(OC)n1)C(=O)O (stereo not drawn) [Compound I-4]

Ki (human ETA receptor): 19 nM
Compound: CCCOC(c1ccccc1)(c1ccccc1)C(Oc1nc(OC)cc(OC)n1)C(=O)O (stereo not drawn) [Compound I-12]
